According to ChEMBL document CHEMBL1201862, “PubChem BioAssay data set” (2004):
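Briefly, cells in 96-well plates were exposed to five compound concentrations for 48 h, and endpoints were estimated by linear interpolation. GI50: concentration for 50% inhibition of growth.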 Activity calls are given as the source filed them. No stated cut-off is given here; in the data, active = GI50 up to about 1.1 µM and inactive = higher.

Columns and labels:
Experiment in all cases: NCI anticancer screen, dose series, 48 h
NCI-H226 = system: NCI-H226
SF-539 = system: SF-539
XF498 = system: XF498
CAKI-1 = system: CAKI-1
IGROV-1 = system: IGROV-1
HOP-62 = system: HOP-62
SNB-78 = system: SNB-78
M14 = system: M14
COLO 205 = system: COLO 205
UO-31 = system: UO-31
NCI-H23 = system: NCI-H23
OVCAR-4 = system: OVCAR-4
DMS-114 = system: DMS-114
A498 = system: A498
CCRF-CEM = system: CCRF-CEM
RPMI-8226 = system: RPMI-8226
DMS-273 = system: DMS-273
HCC 2998 = system: HCC 2998
786-0 = system: 786-0
K562 = system: K562
UACC-62 = system: UACC-62
M19-MEL = system: M19-MEL
HL-60 = system: HL-60
HOP-92 = system: HOP-92
SK-MEL-2 = system: SK-MEL-2
HCT-116 = system: HCT-116
SK-OV-3 = system: SK-OV-3
LXFL 529 = system: LXFL 529
Malme-3M = system: Malme-3M
SR = system: SR
SF-268 = system: SF-268
SK-MEL-28 = system: SK-MEL-28
DLD-1 = system: DLD-1
SN12C = system: SN12C
NCI-H522 = system: NCI-H522
NCI-H460 = system: NCI-H460
MOLT-4 = system: MOLT-4
SNB-75 = system: SNB-75
A549 = system: A549
U-251 = system: U-251
UACC-257 = system: UACC-257
LOX IMVI = system: LOX IMVI
SNB-19 = system: SNB-19
HCT-15 = system: HCT-15
RXF 393 = system: RXF 393
OVCAR-8 = system: OVCAR-8
OVCAR-5 = system: OVCAR-5
EKVX = system: EKVX
KM12 = system: KM12
ACHN = system: ACHN
SK-MEL-5 = system: SK-MEL-5
TK-10 = system: TK-10
SW-620 = system: SW-620
HT-29 = system: HT-29
SF-295 = system: SF-295
OVCAR-3 = system: OVCAR-3

Measured: GI50

Cc1ncc(CI)c(CI)c1O
inactive: NCI-H226 2.39 µM | SF-539 23.4 µM | XF498 20.1 µM | CAKI-1 63.2 µM | IGROV-1 > 100 µM | HOP-62 17.2 µM | SNB-78 > 100 µM | M14 > 100 µM | COLO 205 > 100 µM | UO-31 2.5 µM | NCI-H23 19.4 µM | OVCAR-4 > 100 µM | DMS-114 > 100 µM | A498 > 100 µM | CCRF-CEM 3.93 µM | RPMI-8226 6.7 µM | DMS-273 14.8 µM | HCC 2998 18.8 µM | 786-0 16.9 µM | K562 5.85 µM | UACC-62 > 100 µM | M19-MEL > 100 µM | HL-60 2.22 µM | HOP-92 > 100 µM | SK-MEL-2 21.3 µM | HCT-116 15.6 µM | SK-OV-3 > 100 µM | LXFL 529 > 100 µM | Malme-3M 17.5 µM | SR 12.6 µM | SF-268 24.3 µM | SK-MEL-28 18 µM | DLD-1 24.7 µM | SN12C 17.2 µM | NCI-H522 3.34 µM | NCI-H460 > 100 µM | MOLT-4 12.7 µM | SNB-75 16.8 µM

COC(=O)C1CC2CC(=NNC(N)=O)CC2C1 (configuration not stated)
> 100 µM: HCT-15
inactive: A549 > 100 µM | U-251 > 100 µM | SF-539 > 100 µM | XF498 > 100 µM | UACC-257 > 100 µM | CAKI-1 > 100 µM | LOX IMVI > 100 µM | IGROV-1 > 100 µM | HOP-62 > 100 µM | SNB-78 > 100 µM | SNB-19 > 100 µM | M14 > 100 µM | RXF 393 > 100 µM | COLO 205 > 100 µM | UO-31 > 100 µM | NCI-H23 > 100 µM | OVCAR-4 > 100 µM | DMS-114 > 100 µM | A498 > 100 µM | CCRF-CEM > 100 µM | OVCAR-8 > 100 µM | RPMI-8226 > 100 µM | DMS-273 > 100 µM | OVCAR-5 > 100 µM | EKVX > 100 µM | HCC 2998 > 100 µM | KM12 > 100 µM | 786-0 > 100 µM | K562 > 100 µM | ACHN > 100 µM | UACC-62 > 100 µM | M19-MEL > 100 µM | HL-60 > 100 µM | HOP-92 > 100 µM | SK-MEL-2 > 100 µM | HCT-116 > 100 µM | SK-MEL-5 > 100 µM | TK-10 > 100 µM | SW-620 > 100 µM | SK-OV-3 > 100 µM | HT-29 > 100 µM | LXFL 529 > 100 µM | Malme-3M > 100 µM | SF-268 > 100 µM | SK-MEL-28 > 100 µM | DLD-1 > 100 µM | SN12C > 100 µM | NCI-H522 > 100 µM | NCI-H460 > 100 µM | MOLT-4 > 100 µM | SF-295 > 100 µM | SNB-75 > 100 µM | OVCAR-3 > 100 µM
